{
  "source": "patent US20220016310A1",
  "about": "“ANTIMICROBIAL SHAPE MEMORY POLYMERS” (THE TEXAS A&M UNIVERSITY SYSTEM, priority 2016, published 2022)",
  "origin": "cited, not measured here",
  "tested_on": "antibiotic-resistant bacteria (Enterobacter aerogenes, Escherichia coli, and Staphylococcus aureus)",
  "conditions": "bacteria obtained from hospitals",
  "data": [
    {"smiles": "O=C(O)C=Cc1ccccc1", "note": "[cinnamic acid]", "values": [
      {"measurement": "Susceptibility of antibiotic-resistant bacteria", "value": "susceptible"}
    ]}
  ]
}
